Earlier results in article PMC12304285 (British Journal of Cancer, 2025).

Test system: patients with advanced solid tumours
Set-up: method as in PMID 33230210
Details: single-agent trial; cited from earlier work

## COc1ccc([C@@H](O)c2cc(-c3ncnc4cc(N5CCOCC5)ccc34)c(F)cc2Cl)nn1 [peposertib]
  anaemia or myelosuppressive TEAEs: Neither anaemia nor myelosuppressive TEAEs were reported
